{
  "source": "patent US10149481B2",
  "about": "“Arthropod control compositions and methods” (Tyratech, Inc., priority 2012, dated 2018)",
  "origin": "cited, not measured here",
  "key": {"D. variabilis": {"system": "D. variabilis", "conditions": "2 h after application, unformulated (Kimps et al. 2011)"}, "[1]": {"conditions": "for mammalian toxicity: Nentwig 2003, Frances 2007b, Moore and Debboun 2007"}},
  "data": [
    {"molecule": "CCCCCCCCCC(C)=O", "note": "[2-undecanone]", "values": [
      {"measurement": "repellency", "setting": "D. variabilis", "result": 74, "unit": "%"}
    ]},
    {"molecule": "CCCCN(CCC(=O)OCC)C(C)=O", "note": "[IR3535, 3-(N-Butyl-N-acetyl)-amino propionic acid ethyl ester]", "values": [
      {"measurement": "mammalian toxicity", "setting": "[1]", "result": "low mammalian toxicity"}
    ]},
    {"molecule": "CC1CCC(C(C)(C)O)C(O)C1", "note": "(centres unmarked) [PMD, p-menthane-3,8-diol]", "values": [
      {"measurement": "eye irritation", "setting": "[1]; Strickman 2007", "result": "exceptionally irritating to the eyes"},
      {"measurement": "rat oral and rabbit dermal toxicity", "setting": "[1]; Strickman 2007", "result": "low"}
    ]},
    {"molecule": "Picaridin", "values": [
      {"measurement": "mammalian toxicity", "setting": "[1]", "result": "low mammalian toxicity"}
    ]}
  ]
}
